Assay results from patent US11098034B2, “Pyrazolyl substituted carbonic acid derivatives as modulators of the prostacyclin (PGI2) receptor useful for the treatment of disorders related thereto” (Arena Pharmaceuticals, Inc., priority 2008, dated 2021).

Tested on: MCT-induced pulmonary arterial hypertension in rat
Assay: Rat monocrotaline model of pulmonary arterial hypertension
Type: in vivo
Conditions: male Wistar rats, MCT 60 mg/kg s.c.; test compound 30 mg/kg oral gavage twice a day for 21 days; heart weights Day 22
Protocol: Animals: Male Wistar rats (100-150 g at start of study) (Charles River Laboratories, Wilmington, Mass.) were housed two per cage and maintained in a humidity—(40-60%) and temperature—(68-72° F.) controlled facility on a 12 hr:12 hr light/dark cycle (lights on at 6:30 am) with free access to food (Harlan Teklad, Orange Calif., Rodent Diet 8604) and water. Rats were allowed one week of habituation to the animal facility before testing.
Rat monocrotaline model: The rat monocrotaline (MCT) model is a standard and well-accepted model of pulmonary arterial hypertension. MCT induces acute pulmonary endothelial damage associated with pulmonary vascular inflammation. […]
Rats were randomly given a single subcutaneous injection of either 60 mg/kg MCT (Sigma, St. Louis, Mo.) or 0.9% saline (sham) and assigned to receive oral administration of 20% hydroxypropyl beta-cyclodextrin (vehicle) or test compound (30 mg/kg; FIGS. 1 and 2). […] Heart chamber weights were measured on Day 22. […] The ratio of right ventricular (RV) weight to left ventricle plus septum (LV+S) weight (this ratio is indicated as “RV/(LV+S)” in FIGS. 1 and 2) was calculated as an index of the hypertrophic response to the induced pulmonary arterial hypertension and, as such, as an index of a test compound's therapeutic efficacy for pulmonary arterial hypertension.

COc1cccc(-c2c(-c3ccccc3)nn(C[C@H]3CC[C@@H](COCC(=O)O)CC3)c2C)c1 [Compound 14, 2-(((1s,4s)-4-((4-(3-Methoxyphenyl)-5-methyl-3-phenyl-1H-pyrazol-1-yl)methyl)cyclohexyl)methoxy)acetic Acid]
hypertrophic response to the induced pulmonary arterial hypertension, RV/(LV+S): inhibited the hypertrophic response

COc1cccc(-c2c(-c3ccccc3)nn(C[C@H]3CC[C@@H](COCC(=O)O)CC3)c2SC)c1 [Compound 31, 2-(((1s,4s)-4-((4-(3-Methoxyphenyl)-5-(methylthio)-3-phenyl-1H-pyrazol-1-yl)methyl)cyclohexyl)methoxy)acetic Acid]
hypertrophic response to the induced pulmonary arterial hypertension, RV/(LV+S): inhibited the hypertrophic response
